{"source": "patent US20260199289A1", "about": "“USE OF GLYCOGEN METABOLISM INHIBITORS FOR THE TREATMENT OF CANCER” (THE UNIVERSITY OF VERMONT AND STATE AGRICULTURAL COLLEGE, priority 2022, published 2026)", "key": {"[1]": {"system": "8505C cells", "experiment": "Glycogen content (colorimetric assay, TEM) in ATC cells", "type": "cell-based, human", "conditions": "ATC cells (8505C), CP-91,149 50 μM, 24-hour incubation, colorimetry and TEM", "experimental": "Transmission Electron Microscopy of Glycogen Deposits—Cells were seeded in 10 cm dishes and allowed to adhere overnight. […] Cells were then rinsed with PBS and lifted with trypsin for preparation for TEM as described previously. Thwe et al., “Cell-intrinsic Glycogen Metabolism Supports Early Glycolytic Reprogramming Required for Dendritic Cell Immune Responses,” Cell Metabolism 26:558-567.e555 (2017), which is hereby incorporated by reference in its entirety.\nPYGB RNA Interference—For validating successful PYGB knockdown, 4.0×10^4 cells were plated in 12 well plates containing 0.2% Lipofectamine™ 3000 Transfection Reagent and the indicated concentration of siRNA targeting PYGB or control siRNA in 1 ml CTM. RNA was extracted 72 hours later for RT-qPCR analysis and protein was extracted 96 hours later for immunoblotting. For measuring the effect of PYGB knockdown on cell viability, 1.0×10^3 cells were seeded in 96 well plates with 0.15% Lipofectamine™ 3000 Transfection Reagent and the indicated concentration of siRNA targeting PYGB or control siRNA in 200 μl CTM for 7 days before conducting the SRB assay. For measuring the effect of PYGB knockdown on glycogen content, 6.5×10^5 cells were seeded in 10 cm dishes with 0.2% Lipofectamine™ 3000 Transfection Reagent and the indicated concentration of siRNA targeting PYGB or control siRNA in 10 ml CTM for 4 days preceding cell lysis for glycogen determination.\n(§1) Quantification of Levels of Glycogen, Glucose-1-Phosphate, Glucose-6-Phosphate, Lactate, ATP, Glucose, NADPH, and Glutathione—Briefly, cells were seeded in 10 cm dishes (for measuring glycogen and NADPH), 6 well plates (GIP, G6P, lactate, glucose, and glutathione), or 96 well plates (ATP) and allowed to adhere overnight. CTM was aspirated and cells were rinsed with PBS before application of compounds dissolved in CTM for 24 hours, at which point cells were ~90% confluent. CTM was then aspirated, cells were rinsed with PBS, and lysed according to the respective manufacturer protocol (see Table 4) for metabolite analysis."}, "[2]": {"system": "8505C tumors", "experiment": "8505C xenograft tumor growth in nude mice", "type": "in vivo, mouse", "conditions": "intraperitoneal, 50 mg/kg CP-91,149, 10 mg/kg sorafenib, 6-7 days a week", "experimental": "Ethics statement and animal modeling—All animal procedures were approved by Institutional Animal Care and Use Committee (IACUC) at the University of Vermont. All animals were maintained in pathogen-free conditions and cared for in accordance with IACUC policies and certification. All surgeries were performed with isoflurane anesthesia. Temperature-controlled post-surgical monitoring was implemented to minimize suffering. Mice carrying anaplastic thyroid tumors were euthanized at designated time points for tumor collection. Signs of ulceration or a maximum individual tumor size of 2000 mm^3 were used as a protocol-enforced endpoint.\nMice were given food and water ad libitum. […] These doses were based on previous reports."}, "[3]": {"system": "8505C thyrospheres", "experiment": "ATC stem cell thyrosphere growth", "type": "cell-based, human", "conditions": "8505C stem cells, day 3 compared to day 1", "from_the_text": "Bolf et al., “Thyroid Hormone Receptor Beta Induces a Tumor Suppressive Program in Anaplastic Thyroid Cancer,” Molecular Cancer Research 18(10):1443-1452 (2020), which is hereby incorporated by reference in its entirety. Thyrospheres per well were counted and imaged using a digital camera (Diagnostics Instruments) connected to a Nikon Eclipse TS100 inverted microscope."}, "[4]": {"conditions": "mouse, in vivo", "quoted_text": "Four-week-old athymic female nude mice (outbred homozygous nude Foxn1^nu/Foxn1^nu) were purchased from Jackson Laboratory (Bar Harbor, ME, USA) and were allowed to acclimatize for one week. Mice were given food and water ad libitum. Mice were anesthetized using 3% isoflurane delivered at 1.5 L/min, and tumors were established by subcutaneously injecting 1×10^6 8505C cells with a 26G needle in 100 μL of high concentration Matrigel (Corning Inc.) diluted 1:2 with base RPMI-1640 into each flank of 24 mice. One week later, mice were sorted into four treatment groups to achieve approximately equal body weights between mice. […] Pharmacological agents were dissolved in 100% DMSO and diluted daily in 30% DMSO, 40% PEG300, and 30% PBS and incubated at 55° C. for 10 minutes prior to vortexing to encourage complete solubilization. Tumor dimensions were measured with digital calipers, and the volumes were calculated by the following formula: (Π×a×b^2)/6, where a represents the largest diameter and b is the perpendicular diameter. The body weight of each animal was taken twice a week to measure toxicity. Mice were euthanized with carbon dioxide, and the tumors were harvested, fixed with formalin (Thermo Fisher Scientific), and stored at 4° C. prior to slide sectioning and immunofluorescence analysis."}, "[5]": {"system": "8505C cells", "experiment": "Metabolic flux analysis (Seahorse ECAR and OCR)", "type": "cell-based, human", "conditions": "for extracellular acidification rate (ECAR): 8505C cells; for oxygen consumption rate (OCR): 50 μM CP-91,149, 24 hours", "experimental": "Metabolic Flux Analysis—Thyroid cells (5.0×10^4) were plated in a 96 well Seahorse culture plate with compounds of interest diluted in 200 μl CTM for 24 hours. Cells were washed with PBS and equilibrated for 1 hour at 37° C. in a non-CO2 incubator with compounds of interest diluted in Seahorse RPMI (supplemented with 11.1 mM glucose, 2 mM glutamine, and 5% serum) before analysis of OCR and ECAR in a Metabolic Flux Analyzer (Seahorse Bioscience, North Billerica, MA 96XP)."}, "[6]": {"system": "8505C cells", "experiment": "Quantification of G1P, G6P, lactate, ATP, glucose, NADPH and glutathione", "type": "cell-based, human", "conditions": "50 μM CP-91,149, 24 hours", "experimental": "as §1"}, "[7]": {"system": "HepG2 cells", "conditions": "hepatocellular carcinoma; cited from earlier work"}, "[8]": {"system": "8505C cells", "experiment": "Reactive oxygen species quantification (H2DCFDA)", "type": "cell-based, human", "conditions": "for reactive oxygen species (ROS) levels: 8505C ATC cells", "experimental": "Quantification of Reactive Oxygen Species—Thyroid cells (1.0-2.0×10^4) were seeded in a black 96 well plate in 200 μl CTM and allowed to adhere overnight. Wells were washed with PBS and incubated with or without 25 μM H2DCFDA for 45 minutes at 37° C. in a non-CO2 incubator with compounds of interest diluted in phenol-red free RPMI (supplemented with 2 mM glutamine and 10% charcoal-stripped serum). Wells were washed with PBS and received compounds of interest diluted in phenol-red free, supplemented RPMI and incubated at 37° C. in a SpectraMax M4 Microplate Reader (Molecular Devices) to record fluorescent measurements (Ex/Em=485/535 nm) every 15 minutes overnight. Maximum fluorescence intensity was determined (~6 hours), background signal (—H2DCFDA) was subtracted from each group, and corrected values were normalized to the vehicle control."}, "[9]": {"system": "PYG isoforms", "conditions": "cited from earlier work"}}, "note": "Entries after “also recorded” stand apart in the source; their conditions may differ.", "data": [{"smiles": "CN(C)C(=O)[C@H](O)[C@H](Cc1ccccc1)NC(=O)c1cc2cc(Cl)ccc2[nH]1", "note": "[CP-91,149, 5-chloro-N-[(2S,3R)-4-(dimethylamino)-3-hydroxy-4-oxo-1-phenylbutan-2-yl]-1H-indole-2-carboxamide]", "values": [{"measurement": "glycogen content", "setting": "[1]", "value": "increased glycogen content; also recorded: causes a buildup of glycogen"}, {"measurement": "glycogen content", "setting": "[1]; listed as CP", "value": "significantly increased glycogen content"}, {"measurement": "tumor growth", "setting": "[2]", "value": "significantly impaired tumor growth in vivo; also recorded: severely blunted ATC tumor growth in vivo; also recorded: restrict ATC tumor growth"}, {"measurement": "tumor growth", "setting": "[2]; listed as CP", "value": "notably stunted; also recorded: equally as effective as sorafenib"}, {"measurement": "thyrosphere growth / stem cell response", "setting": "[3]", "value": "inhibits 8505C thyrosphere growth"}, {"measurement": "thyrosphere growth / stem cell response", "setting": "[3]; listed as CP", "value": "concentration-dependent response"}, {"measurement": "toxicity (body weight)", "setting": "[4]", "value": "low toxicity"}, {"measurement": "extracellular acidification rate (ECAR)", "setting": "[5]", "value": "enhances extracellular acidification rate"}, {"measurement": "extracellular acidification rate (ECAR)", "setting": "[5]; listed as CP", "value": "modestly but significantly enhanced ECAR"}, {"measurement": "increase of OCR to compensate for inhibition of glycolysis with 2-DG", "setting": "[5]; ATC cells, CP-treated versus vehicle-treated", "value": "unable to increase their oxidative phosphorylation"}, {"measurement": "oxygen consumption rate (OCR)", "setting": "[5]; ATC cells", "value": "decreases the basal oxygen consumption rate"}, {"measurement": "oxygen consumption rate (OCR)", "setting": "[5]; ATC cells, listed as CP", "value": "significantly limited the OCR"}, {"measurement": "NADPH level", "setting": "[6]; 8505C cells", "value": "decreased NADPH levels; also recorded: decreases the available supply of NADPH"}, {"measurement": "extracellular glucose / glucose uptake from the cell culture media", "setting": "[6]; 8505C cells", "value": "causes an increase in glucose uptake from the cell culture media"}, {"measurement": "glucose-1-phosphate (G1P) level", "setting": "[6]; 8505C cells", "value": "causes a buildup in glucose-1-phosphate"}, {"measurement": "glucose-6-phosphate (G6P) level", "setting": "[6]; 8505C cells", "value": "a reduction in glucose-6-phosphate"}, {"measurement": "lactate production", "setting": "[6]; 8505C cells", "value": "enhances"}, {"measurement": "reduced glutathione (GSH)", "setting": "[6]; 8505C cells", "value": "decreases the relative amount of reduced glutathione (GSH)"}, {"measurement": "NADPH level", "setting": "[6]; 8505C cells, listed as CP", "value": "drastic decrease in NADPH"}, {"measurement": "extracellular glucose / glucose uptake from the cell culture media", "setting": "[6]; 8505C cells, listed as CP", "value": "significant reduction in extracellular glucose"}, {"measurement": "glucose-1-phosphate (G1P) level", "setting": "[6]; 8505C cells, listed as CP", "value": "a buildup of the glycogen monomer, glucose-1-phosphate (G1P)"}, {"measurement": "glucose-6-phosphate (G6P) level", "setting": "[6]; 8505C cells, listed as CP", "value": "a decrease in the glycolytic intermediate, glucose-6-phosphate (G6P)"}, {"measurement": "reduced glutathione (GSH)", "setting": "[6]; 8505C cells, listed as CP", "value": "concomitant loss in reduced glutathione (GSH)"}, {"measurement": "ATP levels", "setting": "[6]; ATC cells", "value": "decreases the levels of ATP"}, {"measurement": "ROS levels", "setting": "[7]", "value": "increased ROS levels"}, {"measurement": "autophagic adaptations", "setting": "[7]", "value": "triggered autophagic adaptations"}, {"measurement": "intrinsic apoptosis", "setting": "[7]", "value": "induce intrinsic apoptosis"}, {"measurement": "reactive oxygen species (ROS) levels", "setting": "[8]", "value": "induced reactive oxygen species accumulation; also recorded: enhances the relative levels of reactive oxygen species"}, {"measurement": "reactive oxygen species (ROS) levels", "setting": "[8]; listed as CP", "value": "three-fold increase; also recorded: higher in cells treated with CP compared to 2-DG"}, {"measurement": "ROS levels with excess glucose", "setting": "[8]; 8505C cells", "value": "excess glucose reduced ROS levels only in CP-treated cells"}, {"measurement": "inhibition of PYG isoforms", "setting": "[9]", "value": "inhibits all PYG isoforms"}]}]}
